Source: patent US20260285880A1, “SUBSTITUTED DIHYDROTHIENOPYRIMIDINE COMPOUND, PREPARATION METHOD THEREFOR, AND USE THEREOF” (SHANGHAI YIDI BIOTECHNOLOGY CO., LTD., priority 2023, published 2026)

molecular target: Flpin-293-PDE4B2 cells (Homo sapiens, UniProt Q07343); experiment: cell-based; details: read-out: Cell Inhibition % @1 nM, 1 nM, Flpin-293-PDE4B2 cells
Sequence (Q07343 1-564 isoform Q07343-2): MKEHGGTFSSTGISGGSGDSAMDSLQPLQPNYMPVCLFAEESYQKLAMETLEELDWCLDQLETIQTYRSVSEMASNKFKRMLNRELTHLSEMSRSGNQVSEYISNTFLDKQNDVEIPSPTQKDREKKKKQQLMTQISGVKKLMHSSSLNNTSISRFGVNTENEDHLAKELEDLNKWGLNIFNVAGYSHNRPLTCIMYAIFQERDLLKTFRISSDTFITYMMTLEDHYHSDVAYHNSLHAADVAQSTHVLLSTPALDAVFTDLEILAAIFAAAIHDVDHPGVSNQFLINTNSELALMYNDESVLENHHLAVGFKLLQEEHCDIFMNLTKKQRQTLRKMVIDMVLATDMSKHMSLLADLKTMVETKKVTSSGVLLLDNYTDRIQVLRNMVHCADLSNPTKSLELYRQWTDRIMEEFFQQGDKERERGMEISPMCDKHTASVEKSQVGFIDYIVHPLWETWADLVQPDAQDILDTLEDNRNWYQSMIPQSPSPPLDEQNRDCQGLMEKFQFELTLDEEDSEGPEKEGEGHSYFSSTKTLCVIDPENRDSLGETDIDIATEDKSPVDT
Description: All compounds were dissolved in DMSO into 10 mM or 20 mM stock solutions. The compound to be tested was diluted with DMSO with a 3-fold gradient. […] 40 nL/well of the compound or a DMSO control was transferred to a 384-well plate by using Echo 550 instrument. […] The plate was incubated at 37° C. for 30 minutes. Eu-cAMP tracer and Ulight-anti-cAMP were frozen and thawed and diluted in a lysis buffer. 10 of μl Eu-cAMP tracer was added to an experimental well, and 10 μl of Ulight-anti-cAMP was added to the experimental well. The reaction plate was centrifuged at 200 g at room temperature for 30 s and then left to stand at 25° C. for 1 h, and data was then collected by Envision. Inhibition %=100−(Signal compound−SignalAve positive control)/(SignalAve negative control−SignalAve positive control)×100.

Row | Structure (SMILES) | inhibition at 0.001 µM [%]
1 | [O-][S+]1CCc2nc(N3CC[C@@H]4c5ccccc5OC[C@H]4C3)nc(NC3(CO)CCC3)c21 (stereo partly drawn) [Compound 83] | 5.79
2 | Cn1cc(Nc2nc(N3CCc4cc(Cl)ccc4C3)nc3c2[S+]([O-])CC3)cn1 (stereo not drawn) [Compound 141] | 11.4
3 | C[C@H]1c2ccc(N3CCCC3)cc2CCN1c1nc2c(c(NC3(CO)CCOC3)n1)[S+]([O-])CC2 (stereo partly drawn) [Compound 211] | 12.5
4 | [O-][S+]1CCc2nc(N3CCc4cc(N5CCC(CO)C5)ccc4C3)nc(NC3(CO)CCC3)c21 (stereo not drawn) [Compound 171] | 4.06
5 | [O-][S+]1CCc2nc(N3CCc4cc(-n5cccn5)ccc4C3)nc(NC3(CO)CCC3)c21 (stereo not drawn) [Compound 91] | 19.2
6 | O=C1CCCN1c1ccc2c(c1)CCN(c1nc3c(c(NC4(CO)CCC4)n1)[S+]([O-])CC3)C2 (stereo not drawn) [Compound 87] | 2.9
7 | CC(=O)N1CC[C@H](Nc2nc(N3CCc4cc(N5CCCC5)ccc4[C@@H]3C)nc3c2[S+]([O-])CC3)C1 (stereo partly drawn) [Compound 222] | 41.5
8 | [O-][S+]1CCc2nc(N3CCc4c(nn5cc(F)ccc45)C3)nc(NC3(CO)CCC3)c21 (stereo not drawn) [Compound 32] | 23.5
9 | N#CCc1ccc(Nc2nc(N3CCc4cc(Cl)ccc4C3)nc3c2[S+]([O-])CC3)cc1 (stereo not drawn) [Compound 138] | 4.95
10 | NC(=O)Nc1ccc(Nc2nc(N3CCc4cc(Cl)ccc4C3)nc3c2[S+]([O-])CC3)cc1 (stereo not drawn) [Compound 137] | 4.94
11 | [O-][S+]1CCc2nc(N3CC[C@@H]4c5ccc(Br)cc5OC[C@H]4C3)nc(NC3(CO)CCC3)c21 (stereo partly drawn) [Compound 115] | 7.72
12 | C[C@H]1c2ccc(N3CCCC3)cc2CCN1c1nc2c(c(N[C@H]3CCC(=O)N(C)C3)n1)[S+]([O-])CC2 (stereo partly drawn) [Compound 202] | 52.5
13 | [O-][S+]1CCc2nc(N3CCc4cc(N5CC(F)C5)ccc4C3)nc(NC3(CO)CCC3)c21 (stereo not drawn) [Compound 89] | 3.47
14 | [O-][S+]1CCc2nc(N3CCc4cc(-n5ccnc5)ccc4C3)nc(NC3(CO)CCC3)c21 (stereo not drawn) [Compound 90] | 15
15 | [O-][S+]1CCc2nc(N3CCc4cc(N5CCCC5)ccc4C3)nc(NC3(CO)CCC3)c21 (stereo not drawn) [Compound 92] | 3.35
16 | [O-][S+]1CCc2nc(N3CCC4=C(COc5ccccc54)C3)nc(NC3(CO)CCC3)c21 (stereo not drawn) [Compound 97] | 1.66
17 | C[C@H]1c2ccc(N3CCCC3)cc2CCN1c1nc2c(c(Nc3nnn(C)n3)n1)[S+]([O-])CC2 (stereo partly drawn) [Compound 213] | 9.25
18 | [O-][S+]1CCc2nc(N3CCc4cc(N5CC[C@H](O)C5)ccc4C3)nc(NC3(CO)CCC3)c21 (stereo partly drawn) [Compound 172] | 3.77
19 | COc1ccc2sc3c(c2c1)CCN(c1nc2c(c(NC4(CO)CCC4)n1)[S+]([O-])CC2)C3 (stereo not drawn) [Compound 82] | 19.1
20 | [O-][S+]1CCc2nc(N3CC[C@H]4c5cnc(Cl)cc5OC[C@@H]4C3)nc(NC3(CO)CCC3)c21 (stereo partly drawn) [Compound 117] | 5.32
21 | COC[C@@H]1CCCN1c1ccc2c(c1)CCN(c1nc3c(c(NC4(CO)CCC4)n1)[S+]([O-])CC3)C2 (stereo partly drawn) [Compound 147] | 8.67
22 | [O-][S+]1CCc2nc(N3CCc4cc(I)ccc4C3)nc(NC3(CO)CCC3)c21 (stereo not drawn) [Compound 67] | 14.2
23 | C[C@H]1c2ccc(Br)cc2CCN1c1nc2c(c(NC3(CO)CCC3)n1)[S+]([O-])CC2 (stereo partly drawn) [Compound 123] | 3.3
24 | [O-][S+]1CCc2nc(N3CC[C@@H]4c5cccc(Cl)c5OC[C@H]4C3)nc(NC3(CO)CCC3)c21 (stereo partly drawn) [Compound 107] | 2.82

same assay, conditions: read-out: Cell Inhibition % @10 nM, 10 nM, Flpin-293-PDE4B2 cells

Row | Structure (SMILES) | inhibition at 0.01 µM [%]
25 | [O-][S+]1CCc2nc(N3CC[C@@H]4c5ccccc5OC[C@H]4C3)nc(NC3(CO)CCC3)c21 (stereo partly drawn) [Compound 83] | 47.8
26 | Cn1cc(Nc2nc(N3CCc4cc(Cl)ccc4C3)nc3c2[S+]([O-])CC3)cn1 (stereo not drawn) [Compound 141] | 49.2
27 | C[C@H]1c2ccc(N3CCCC3)cc2CCN1c1nc2c(c(NC3(CO)CCOC3)n1)[S+]([O-])CC2 (stereo partly drawn) [Compound 211] | 50.1
28 | [O-][S+]1CCc2nc(N3CCc4cc(N5CCC(CO)C5)ccc4C3)nc(NC3(CO)CCC3)c21 (stereo not drawn) [Compound 171] | 36.5
29 | [O-][S+]1CCc2nc(N3CCc4cc(-n5cccn5)ccc4C3)nc(NC3(CO)CCC3)c21 (stereo not drawn) [Compound 91] | 86
30 | O=C1CCCN1c1ccc2c(c1)CCN(c1nc3c(c(NC4(CO)CCC4)n1)[S+]([O-])CC3)C2 (stereo not drawn) [Compound 87] | 31.3
31 | CC(=O)N1CC[C@H](Nc2nc(N3CCc4cc(N5CCCC5)ccc4[C@@H]3C)nc3c2[S+]([O-])CC3)C1 (stereo partly drawn) [Compound 222] | 96.2
32 | [O-][S+]1CCc2nc(N3CCc4c(nn5cc(F)ccc45)C3)nc(NC3(CO)CCC3)c21 (stereo not drawn) [Compound 32] | 74.2
33 | N#CCc1ccc(Nc2nc(N3CCc4cc(Cl)ccc4C3)nc3c2[S+]([O-])CC3)cc1 (stereo not drawn) [Compound 138] | 27.9
34 | NC(=O)Nc1ccc(Nc2nc(N3CCc4cc(Cl)ccc4C3)nc3c2[S+]([O-])CC3)cc1 (stereo not drawn) [Compound 137] | 21.8
35 | [O-][S+]1CCc2nc(N3CC[C@@H]4c5ccc(Br)cc5OC[C@H]4C3)nc(NC3(CO)CCC3)c21 (stereo partly drawn) [Compound 115] | 39.7
36 | C[C@H]1c2ccc(N3CCCC3)cc2CCN1c1nc2c(c(N[C@H]3CCC(=O)N(C)C3)n1)[S+]([O-])CC2 (stereo partly drawn) [Compound 202] | 99.4
37 | [O-][S+]1CCc2nc(N3CCc4cc(N5CC(F)C5)ccc4C3)nc(NC3(CO)CCC3)c21 (stereo not drawn) [Compound 89] | 37.4
38 | [O-][S+]1CCc2nc(N3CCc4cc(-n5ccnc5)ccc4C3)nc(NC3(CO)CCC3)c21 (stereo not drawn) [Compound 90] | 65.8
39 | [O-][S+]1CCc2nc(N3CCc4cc(N5CCCC5)ccc4C3)nc(NC3(CO)CCC3)c21 (stereo not drawn) [Compound 92] | 43.7
40 | [O-][S+]1CCc2nc(N3CCC4=C(COc5ccccc54)C3)nc(NC3(CO)CCC3)c21 (stereo not drawn) [Compound 97] | 17.4
41 | C[C@H]1c2ccc(N3CCCC3)cc2CCN1c1nc2c(c(Nc3nnn(C)n3)n1)[S+]([O-])CC2 (stereo partly drawn) [Compound 213] | 29.6
42 | [O-][S+]1CCc2nc(N3CCc4cc(N5CC[C@H](O)C5)ccc4C3)nc(NC3(CO)CCC3)c21 (stereo partly drawn) [Compound 172] | 46
43 | COc1ccc2sc3c(c2c1)CCN(c1nc2c(c(NC4(CO)CCC4)n1)[S+]([O-])CC2)C3 (stereo not drawn) [Compound 82] | 77.5
44 | [O-][S+]1CCc2nc(N3CC[C@H]4c5cnc(Cl)cc5OC[C@@H]4C3)nc(NC3(CO)CCC3)c21 (stereo partly drawn) [Compound 117] | 17.3
45 | COC[C@@H]1CCCN1c1ccc2c(c1)CCN(c1nc3c(c(NC4(CO)CCC4)n1)[S+]([O-])CC3)C2 (stereo partly drawn) [Compound 147] | 32.2
46 | [O-][S+]1CCc2nc(N3CCc4cc(I)ccc4C3)nc(NC3(CO)CCC3)c21 (stereo not drawn) [Compound 67] | 47.4
47 | C[C@H]1c2ccc(Br)cc2CCN1c1nc2c(c(NC3(CO)CCC3)n1)[S+]([O-])CC2 (stereo partly drawn) [Compound 123] | 29.6
48 | [O-][S+]1CCc2nc(N3CC[C@@H]4c5cccc(Cl)c5OC[C@H]4C3)nc(NC3(CO)CCC3)c21 (stereo partly drawn) [Compound 107] | 52.5

same assay, conditions: read-out: Cell Inhibition % @100 nM, 100 nM, Flpin-293-PDE4B2 cells

Row | Structure (SMILES) | inhibition at 0.1 µM [%]
49 | [O-][S+]1CCc2nc(N3CC[C@@H]4c5ccccc5OC[C@H]4C3)nc(NC3(CO)CCC3)c21 (stereo partly drawn) [Compound 83] | 97.3
50 | Cn1cc(Nc2nc(N3CCc4cc(Cl)ccc4C3)nc3c2[S+]([O-])CC3)cn1 (stereo not drawn) [Compound 141] | 96
51 | C[C@H]1c2ccc(N3CCCC3)cc2CCN1c1nc2c(c(NC3(CO)CCOC3)n1)[S+]([O-])CC2 (stereo partly drawn) [Compound 211] | 98.4
52 | [O-][S+]1CCc2nc(N3CCc4cc(N5CCC(CO)C5)ccc4C3)nc(NC3(CO)CCC3)c21 (stereo not drawn) [Compound 171] | 94.3
53 | [O-][S+]1CCc2nc(N3CCc4cc(-n5cccn5)ccc4C3)nc(NC3(CO)CCC3)c21 (stereo not drawn) [Compound 91] | 100
54 | O=C1CCCN1c1ccc2c(c1)CCN(c1nc3c(c(NC4(CO)CCC4)n1)[S+]([O-])CC3)C2 (stereo not drawn) [Compound 87] | 89.1
55 | CC(=O)N1CC[C@H](Nc2nc(N3CCc4cc(N5CCCC5)ccc4[C@@H]3C)nc3c2[S+]([O-])CC3)C1 (stereo partly drawn) [Compound 222] | 101
56 | [O-][S+]1CCc2nc(N3CCc4c(nn5cc(F)ccc45)C3)nc(NC3(CO)CCC3)c21 (stereo not drawn) [Compound 32] | 97.7
57 | N#CCc1ccc(Nc2nc(N3CCc4cc(Cl)ccc4C3)nc3c2[S+]([O-])CC3)cc1 (stereo not drawn) [Compound 138] | 89.6
58 | NC(=O)Nc1ccc(Nc2nc(N3CCc4cc(Cl)ccc4C3)nc3c2[S+]([O-])CC3)cc1 (stereo not drawn) [Compound 137] | 83.8
59 | [O-][S+]1CCc2nc(N3CC[C@@H]4c5ccc(Br)cc5OC[C@H]4C3)nc(NC3(CO)CCC3)c21 (stereo partly drawn) [Compound 115] | 97.7
60 | C[C@H]1c2ccc(N3CCCC3)cc2CCN1c1nc2c(c(N[C@H]3CCC(=O)N(C)C3)n1)[S+]([O-])CC2 (stereo partly drawn) [Compound 202] | 101
61 | [O-][S+]1CCc2nc(N3CCc4cc(N5CC(F)C5)ccc4C3)nc(NC3(CO)CCC3)c21 (stereo not drawn) [Compound 89] | 95.3
62 | [O-][S+]1CCc2nc(N3CCc4cc(-n5ccnc5)ccc4C3)nc(NC3(CO)CCC3)c21 (stereo not drawn) [Compound 90] | 97.2
63 | [O-][S+]1CCc2nc(N3CCc4cc(N5CCCC5)ccc4C3)nc(NC3(CO)CCC3)c21 (stereo not drawn) [Compound 92] | 98.2
64 | [O-][S+]1CCc2nc(N3CCC4=C(COc5ccccc54)C3)nc(NC3(CO)CCC3)c21 (stereo not drawn) [Compound 97] | 86.5
65 | C[C@H]1c2ccc(N3CCCC3)cc2CCN1c1nc2c(c(Nc3nnn(C)n3)n1)[S+]([O-])CC2 (stereo partly drawn) [Compound 213] | 89
66 | [O-][S+]1CCc2nc(N3CCc4cc(N5CC[C@H](O)C5)ccc4C3)nc(NC3(CO)CCC3)c21 (stereo partly drawn) [Compound 172] | 96.6
67 | COc1ccc2sc3c(c2c1)CCN(c1nc2c(c(NC4(CO)CCC4)n1)[S+]([O-])CC2)C3 (stereo not drawn) [Compound 82] | 99.9
68 | [O-][S+]1CCc2nc(N3CC[C@H]4c5cnc(Cl)cc5OC[C@@H]4C3)nc(NC3(CO)CCC3)c21 (stereo partly drawn) [Compound 117] | 61.6
69 | COC[C@@H]1CCCN1c1ccc2c(c1)CCN(c1nc3c(c(NC4(CO)CCC4)n1)[S+]([O-])CC3)C2 (stereo partly drawn) [Compound 147] | 94.4
70 | [O-][S+]1CCc2nc(N3CCc4cc(I)ccc4C3)nc(NC3(CO)CCC3)c21 (stereo not drawn) [Compound 67] | 96.4
71 | C[C@H]1c2ccc(Br)cc2CCN1c1nc2c(c(NC3(CO)CCC3)n1)[S+]([O-])CC2 (stereo partly drawn) [Compound 123] | 86.8
72 | [O-][S+]1CCc2nc(N3CC[C@@H]4c5cccc(Cl)c5OC[C@H]4C3)nc(NC3(CO)CCC3)c21 (stereo partly drawn) [Compound 107] | 98.1
